How the values were obtained:
[1] = test system: johnsongrass; experiment: Test C preemergence; type: in vivo, Sorghum halepense; conditions: Sorghum halepense, pre-emergence
From the text: (§1) Seeds of plant species selected from blackgrass (Alopecurus myosuroides), Italian ryegrass (Lolium multiflorum), wheat, winter (winter wheat, Triticum aestivum), galium (catchweed bedstraw, Galium aparine), corn (Zea mays), large (Lg) crabgrass (Digitaria sanguinalis), giant foxtail (Setaria faberii), johnsongrass (Sorghum halepense), lambsquarters (Chenopodium album), morningglory (Ipomoea coccinea), yellow nutsedge (Cyperus esculentus), pigweed (Amaranthus retroflexus), ragweed (common ragweed, Ambrosia elatior), soybean (Glycine max), barnyardgrass (Echinochloa crus-galli), oilseed rape (Brassica napus), waterhemp (common waterhemp, Amaranthus rudis), kochia (Kochia scoparia), wild oat (Avena fatua), surinam grass (Brachiaria decumbens), foxtail, green (green foxtail, Setaria viridis), goosegrass (Eleusine indica), bromegrass, downy (downy bromegrass, Bromus tectorum), nightshade (eastern black nightshade, Solanum ptycanthum), cocklebur (common cocklebur, Xanthium strumarium), cupgrass, woolly (woolly cupgrass, Eriochloa villosa), bermudagrass (Cynodon dactylon), sunflower, (common oilseed sunflower, Helianthus annuus), Russian thistle (Salsola kali), and velvetleaf (Abutilon theophrasti) were planted into a blend of loam soil and sand and treated preemergence with test chemicals formulated in a non-phytotoxic solvent mixture which included a surfactant.
(§2) At the same time, plants selected from these crop and weed species and also barley, winter (winter barley, Hordeum vulgare), windgrass (Apera spica-venti), chickweed (common chickweed, Stellaria media), deadnettle (henbit deadnettle, Lamium amplexicaule), and canarygrass (littleseed canarygrass, Phalaris minor) were planted in pots containing Redi-Earth® planting medium (Scotts Company, 14111 Scottslawn Road, Marysville, Ohio 43041) comprising spaghnum peat moss, vermiculite, wetting agent and starter nutrients and treated with postemergence applications of test chemicals formulated in the same manner. Plants ranged in height from 2 to 18 cm (1- to 4-leaf stage) for postemergence treatments. Treated plants and controls were maintained in a greenhouse for 13 to 15 days, after which time all species were compared to controls and visually evaluated. Plant response ratings, summarized in Table C, are based on a scale of 0 to 100 where 0 is no effect and 100 is complete control. A dash (-) response means no test result.

[2] = test system: pigweed; experiment: Test A postemergence; type: in vivo, Amaranthus retroflexus; conditions: Amaranthus retroflexus, post-emergence
Outline: (§3)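 Compounds in non-phytotoxic solvent with surfactant applied as soil spray preemergence, or postemergence to plants 2-10 cm at one- to two-leaf stage, in loam/sand. After approximately 10 days in greenhouse, injury rated visually versus untreated controls, 0 (no effect) to 100 (complete control).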

[3] = test system: corn; experiment: Test C postemergence; type: in vivo, Zea mays; conditions: Zea mays, post-emergence
Outline: (§4)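 Greenhouse herbicide screen. Pre: seeded loam/sand, sprayed at planting. Post: 1–4 leaf plants (2–18 cm) in peat-based mix. Formulation: solvent mixture + surfactant, non-phytotoxic. Readout: visual % control vs untreated, 13–15 d; dash = not tested.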

[4] = test system: morningglory; experiment: Test C preemergence; type: in vivo, Ipomoea coccinea; conditions: Ipomoea, pre-emergence
Outline: as §4

[5] = test system: large (Lg) crabgrass; experiment: Test A preemergence; type: in vivo, Digitaria sanguinalis; conditions: Digitaria sanguinalis, pre-emergence, 240 h, read-out: Crabgrass, Large plant response rating
Outline: as §3

[6] = test system: large (Lg) crabgrass; experiment: Test C postemergence; type: in vivo, Digitaria sanguinalis; conditions: Digitaria sanguinalis, post-emergence
Outline: as §4

[7] = test system: wheat, winter; experiment: Test C postemergence; type: in vivo, Triticum aestivum; conditions: Triticum aestivum, post-emergence
Outline: as §4

[8] = test system: velvetleaf; experiment: Test C preemergence; type: in vivo, Abutilon theophrasti; conditions: Abutilon theophrasti, pre-emergence
From the text: as §1, §2

[9] = test system: Heteranthera limosa; experiment: Test B flooded paddy test; type: in vivo; conditions: Heteranthera limosa, Flood, 250 g ai/ha; 0 to 100 scale where 0 is no effect and 100 is complete control; read-out: Plant response rating, Ducksalad
Outline: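 Visual ratings on a 0 to 100 scale, where 100 means complete control, compared treated plants with controls after 13 to 15 days in a greenhouse. Treatment went into paddy water 3 cm deep over the soil, applied to plants at the 2-leaf stage.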

[10] = test system: chickweed; experiment: Test C postemergence; type: in vivo, Stellaria media; conditions: Stellaria media, post-emergence
Outline: as §4

[11] = test system: Italian ryegrass; experiment: Test C preemergence; type: in vivo, Lolium multiflorum; conditions: Lolium multiflorum, pre-emergence
From the text: as §1, §2

[12] = test system: galium; experiment: Test C preemergence; type: in vivo, Galium aparine; conditions: Galium, pre-emergence
From the text: as §1, §2

[13] = test system: giant foxtail; experiment: Test A preemergence; type: in vivo, Setaria faberii; conditions: Setaria faberi, pre-emergence, 240 h, read-out: Foxtail, Giant plant response rating
Outline: as §3

[14] = test system: velvetleaf; experiment: Test A preemergence; type: in vivo, Abutilon theophrasti; conditions: Abutilon theophrasti, pre-emergence, 240 h, read-out: Velvetleaf plant response rating
Outline: as §3

[15] = 125 g ai/ha, 0 to 100 scale where 0 is no effect and 100 is complete control
[16] = 500 g ai/ha, 0 to 100 scale, 0 no effect, 100 complete control, approx. 10 days

Clc1cnc(Oc2ccccc2-n2cc(Br)cn2)nc1 [Compound 7, 2-[2-(4-bromo-1H-pyrazol-1-yl)phenoxy]-5-chloropyrimidine]
98%: pest or weed control at 250 g/ha ([10]; 250 g ai/ha, postemergence, read-out: Plant response rating (0 to 100), Chickweed)
100%: pest or weed control at 125 g/ha ([2]; 125 g ai/ha, 0 to 100 scale where 0 is no effect and 100 is complete control, read-out: Plant response rating, Pigweed) | pest or weed control at 500 g/ha ([2]; 240 h, 500 g ai/ha, 0 to 100 scale, 0 no effect, 100 complete control, read-out: Plant response rating Pigweed) | pest or weed control at 125 g/ha [5, 15] | pest or weed control at 500 g/ha [5, 16] | pest or weed control at 62 g/ha ([8]; 62 g ai/ha, preemergence, scale 0 (no effect) to 100 (complete control), read-out: Velvetleaf plant response rating) | pest or weed control at 125 g/ha ([8]; 125 g ai/ha, preemergence, scale 0 (no effect) to 100 (complete control), read-out: Velvetleaf plant response rating) | pest or weed control at 250 g/ha ([8]; 250 g ai/ha, preemergence, scale 0 (no effect) to 100 (complete control), read-out: Velvetleaf plant response rating) | pest or weed control at 62 g/ha ([12]; 62 g ai/ha, preemergence, scale 0 (no effect) to 100 (complete control), read-out: Galium plant response rating) | pest or weed control at 125 g/ha ([12]; 125 g ai/ha, preemergence, scale 0 (no effect) to 100 (complete control), read-out: Galium plant response rating) | pest or weed control at 250 g/ha ([12]; 250 g ai/ha, preemergence, scale 0 (no effect) to 100 (complete control), read-out: Galium plant response rating) | pest or weed control at 125 g/ha [13, 15] | pest or weed control at 500 g/ha [13, 16] | pest or weed control at 125 g/ha [14, 15] | pest or weed control at 500 g/ha [14, 16]
0%: pest or weed control at 31 g/ha ([1]; Preemergence, 31 g ai/ha, scale 0 to 100, 0 no effect, 100 complete control, read-out: Plant response rating, Johnsongrass) | pest or weed control at 62 g/ha ([4]; 62 g ai/ha, preemergence, scale 0 (no effect) to 100 (complete control), read-out: Morningglory plant response rating) | pest or weed control at 31 g/ha ([4]; Preemergence, 31 g ai/ha, scale 0 to 100, 0 no effect, 100 complete control, read-out: Plant response rating, Morningglory) | pest or weed control at 62 g/ha ([11]; 62 g ai/ha, preemergence, scale 0 (no effect) to 100 (complete control), read-out: Ryegrass, Italian plant response rating) | pest or weed control at 31 g/ha ([11]; Preemergence, 31 g ai/ha, scale 0 to 100, 0 no effect, 100 complete control, read-out: Plant response rating, Ryegrass, Italian)
15%: plant injury at 250 g/ha ([7]; 250 g ai/ha, postemergence, read-out: Plant response rating (0 to 100), Wheat)
90%: pest or weed control at 125 g/ha ([10]; 125 g ai/ha, postemergence, read-out: Plant response rating (0 to 100), Chickweed)
85%: pest or weed control at 31 g/ha ([12]; Preemergence, 31 g ai/ha, scale 0 to 100, 0 no effect, 100 complete control, read-out: Plant response rating, Galium)
60%: plant injury at 125 g/ha ([3]; 125 g ai/ha, postemergence, read-out: Plant response rating (0 to 100), Corn)
25%: Corn plant response rating (crop injury, 0 = no effect, 100 = complete kill) at 62 g/ha ([3]; Postemergence, 62 g ai/ha, scale 0 to 100 (0 no effect, 100 complete control))
75%: pest or weed control at 250 g/ha ([1]; 250 g ai/ha, preemergence, scale 0 (no effect) to 100 (complete control), read-out: Johnsongrass plant response rating) | plant injury at 250 g/ha ([3]; 250 g ai/ha, postemergence, read-out: Plant response rating (0 to 100), Corn)
80%: pest or weed control at 250 g/ha [9] | pest or weed control at 31 g/ha ([10]; Postemergence, 31 g ai/ha, scale 0 to 100 (0 no effect, 100 complete control), 13 to 15 days, read-out: Plant response rating, Chickweed)
5%: pest or weed control at 62 g/ha ([1]; 62 g ai/ha, preemergence, scale 0 (no effect) to 100 (complete control), read-out: Johnsongrass plant response rating) | pest or weed control at 31 g/ha ([6]; Postemergence, 31 g ai/ha, scale 0 to 100 (0 no effect, 100 complete control), 13 to 15 days, read-out: Plant response rating, Crabgrass, Large) | pest or weed control at 62 g/ha ([6]; Postemergence, 62 g ai/ha, scale 0 to 100 (0 no effect, 100 complete control), read-out: Plant response rating, Crabgrass, Large) | plant injury at 31 g/ha ([7]; Postemergence, 31 g ai/ha, scale 0 to 100 (0 no effect, 100 complete control), 13 to 15 days, read-out: Plant response rating, Wheat) | plant injury at 62 g/ha ([7]; Postemergence, 62 g ai/ha, scale 0 to 100 (0 no effect, 100 complete control), read-out: Plant response rating, Wheat) | pest or weed control at 125 g/ha ([11]; 125 g ai/ha, preemergence, scale 0 (no effect) to 100 (complete control), read-out: Ryegrass, Italian plant response rating)
40%: pest or weed control at 250 g/ha ([4]; 250 g ai/ha, preemergence, scale 0 (no effect) to 100 (complete control), read-out: Morningglory plant response rating) | pest or weed control at 31 g/ha ([8]; Preemergence, 31 g ai/ha, scale 0 to 100, 0 no effect, 100 complete control, read-out: Plant response rating, Velvetleaf) | pest or weed control at 250 g/ha ([11]; 250 g ai/ha, preemergence, scale 0 (no effect) to 100 (complete control), read-out: Ryegrass, Italian plant response rating)
20%: pest or weed control at 250 g/ha ([6]; 250 g ai/ha, postemergence, read-out: Plant response rating (0 to 100), Crabgrass, Large)
10%: pest or weed control at 125 g/ha ([1]; 125 g ai/ha, preemergence, scale 0 (no effect) to 100 (complete control), read-out: Johnsongrass plant response rating) | pest or weed control at 125 g/ha ([4]; 125 g ai/ha, preemergence, scale 0 (no effect) to 100 (complete control), read-out: Morningglory plant response rating) | pest or weed control at 125 g/ha ([6]; 125 g ai/ha, postemergence, read-out: Plant response rating (0 to 100), Crabgrass, Large) | plant injury at 125 g/ha ([7]; 125 g ai/ha, postemergence, read-out: Plant response rating (0 to 100), Wheat)

— patent publication US9695155B2, “Herbicidal substituted pyrimidinyloxy benzene compounds” (E. I. DU PONT DE NEMOURS AND COMPANY, priority 2013, dated 2017)
